The values that follow come from ChEMBL document CHEMBL1201862, “PubChem BioAssay data set” (2004).

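Interpolation was linear, between the two tested concentrations surrounding the appropriate level; five concentrations were tested over 48 hours in 96-well plates. GI50 marks 50% less growth.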 Activity calls are given as the source filed them. Cut-off read from the data, not from the text of the source: active = GI50 up to about 1.1 µM and inactive = higher.

Among the test systems are HCC 2998; U-251; HOP-62; HCT-15; SW-620; SN12C; SF-295; MDA-MB-231; CCRF-CEM; MDA-MB-435; A498; HL-60; K562; PC-3; HCT-116; MCF7; MOLT-4; OVCAR-8; OVCAR-3.
Common to all, as to experiment: inhibition of tumour cell growth, NCI panel, 48 h

Regarding `N#C/C(=C1\N=C(c2ccccc2O)Oc2ccccc21)c1ccc([N+](=O)[O-])cc1`, the GI50 in the test on HCC 2998 was > 100 µM (inactive); in the test with U-251, 71.9 µM (inactive); with HOP-62, 33.8 µM (inactive); in the test on HCT-15 it was above 100 µM; with SW-620 it was > 100 µM (inactive); in the test on SN12C, > 100 µM (inactive). The GI50 with SF-295 is 72.3 µM (inactive); in the test with MDA-MB-231, > 100 µM (inactive); with CCRF-CEM, > 100 µM (inactive); in the test with MDA-MB-435, > 100 µM (inactive); in the test on A498, > 100 µM (inactive); with HL-60 it was > 100 µM (inactive). In addition, the GI50 in the test with K562, with PC-3, in the test on HCT-116, in the test with MCF7, with MOLT-4 and in the test with OVCAR-8 was > 100 µM (inactive) each time. The GI50 in the test on OVCAR-3 is > 100 µM (inactive).

For the compound `Cc1ccc(NC(=O)CC(=O)N2N=C(N(c3ccccc3)c3ccccc3)CC2c2ccccc2)cc1` (configuration not stated), the GI50 in the test with HCC 2998 is > 100 µM (inactive); in the test with U-251, > 100 µM (inactive); in the test with HOP-62 it was > 100 µM (inactive); with HCT-15, above 100 µM; with SW-620, > 100 µM (inactive); in the test on SF-295, > 100 µM (inactive). In addition, the GI50 in the test with MDA-MB-231, with CCRF-CEM, with MDA-MB-435, in the test with A498, with HL-60 and in the test on K562 was > 100 µM (inactive) in each case. The GI50 was 85.7 µM (inactive) with PC-3; > 100 µM (inactive) in the test on HCT-116; > 100 µM (inactive) with MCF7; > 100 µM (inactive) in the test on MOLT-4; > 100 µM (inactive) with OVCAR-8; > 100 µM (inactive) in the test with OVCAR-3.

In the case of `C/C=C1/CN2CCC34c5ccccc5N(C)C23C2CC1C4(C(=O)OC)C(O)O2` (configuration not stated), the GI50 with HCC 2998 is > 100 µM (inactive); with U-251 it was > 100 µM (inactive); in the test with HOP-62, > 100 µM (inactive); with HCT-15, above 100 µM; in the test with SW-620, > 100 µM (inactive); in the test with SN12C, > 100 µM (inactive). Further, the GI50 with SF-295, in the test with MDA-MB-231, in the test on CCRF-CEM, in the test with MDA-MB-435, with A498 and with HL-60 was > 100 µM (inactive) each time. Further, the GI50 with K562, with PC-3, in the test on HCT-116, in the test with MCF7, in the test on MOLT-4 and in the test on OVCAR-8 was > 100 µM (inactive) in each case. Besides, the GI50 in the test on OVCAR-3 is > 100 µM (inactive).

Take `CCCCSC1=N/C(=C\c2ccco2)C(Cl)=N1`: the GI50 in the test with HCC 2998 was > 100 µM (inactive); with U-251, > 100 µM (inactive); in the test with HOP-62, > 100 µM (inactive); in the test on HCT-15, above 100 µM; with SW-620 it was > 100 µM (inactive); in the test on SN12C it was > 100 µM (inactive). In addition, the GI50 in the test on SF-295, with MDA-MB-231, with CCRF-CEM, with MDA-MB-435, in the test on A498 and with HL-60 was > 100 µM (inactive) each time. Also, the GI50 in the test on PC-3, in the test with HCT-116, in the test on MCF7, in the test with MOLT-4, in the test with OVCAR-8 and in the test with OVCAR-3 was > 100 µM (inactive) throughout.

For `CCOC(=O)[C@H]1O[C@@H]1C(=O)NC(CC(C)C)C(=O)NCCC(C)C` (some centres not stated), the GI50 in the test on HCC 2998 was > 100 µM (inactive); in the test on U-251, > 100 µM (inactive); in the test with HOP-62, > 100 µM (inactive); in the test on HCT-15, above 100 µM; in the test on SW-620 it was > 100 µM (inactive); in the test on SN12C, > 100 µM (inactive). In addition, the GI50 in the test with SF-295, with MDA-MB-231, in the test with CCRF-CEM, with MDA-MB-435, in the test on A498 and with K562 was > 100 µM (inactive) in each case. In addition, the GI50 in the test on PC-3, in the test with HCT-116, with MCF7, in the test on MOLT-4, with OVCAR-8 and with OVCAR-3 was > 100 µM (inactive) throughout.

Consider `N#Cc1c(-c2ccc([N+](=O)[O-])cc2)c(C#N)c(=O)n(NS(=O)(=O)c2ccccc2)c1-c1ccccc1`, for which the GI50 is > 100 µM (inactive) in the test on HCC 2998; > 100 µM (inactive) with U-251; > 100 µM (inactive) with HOP-62; above 100 µM in the test on HCT-15; > 100 µM (inactive) in the test on SW-620; > 100 µM (inactive) in the test on SN12C. In addition, the GI50 with SF-295, in the test with MDA-MB-231, in the test with CCRF-CEM, in the test with MDA-MB-435, in the test with A498 and in the test with HL-60 was > 100 µM (inactive) throughout. Also, the GI50 in the test on K562, with PC-3, in the test on HCT-116, with MCF7, with MOLT-4 and in the test with OVCAR-8 was > 100 µM (inactive) throughout.

For the compound `c1ccc2c(c1)Nc1cccc3c1c-2nc1cc2ccccc2cc13`, the GI50 in the test with HCC 2998 is 1.72 µM (inactive); in the test on U-251 it was 2.03 µM (inactive); with HOP-62, 1.72 µM (inactive); with SW-620, 1.53 µM (inactive); with SN12C, 1.69 µM (inactive); in the test on SF-295, 1.6 µM (inactive). Moreover, the GI50 in the test on MDA-MB-231 is 1.1 µM (active); in the test with MDA-MB-435, 2 µM (inactive); in the test on A498, 2.88 µM (inactive); with K562, 0.513 µM (active); with PC-3, 1.53 µM (inactive); in the test with HCT-116, 1.75 µM (inactive). The GI50 in the test with MCF7 is 1.56 µM (inactive); in the test on OVCAR-3 it was 1.59 µM (inactive).

As to `Cc1ccc(/N=N/c2c(C)c(C#N)c(=S)n(C3OC(CO)C(O)C(O)C3O)c2-c2ccccc2)cc1` (configuration not stated), the GI50 in the test on HCC 2998 was 41.1 µM (inactive); in the test with U-251, 14.4 µM (inactive); in the test with HOP-62, 24.9 µM (inactive); in the test on HCT-15, 21.9 µM; in the test with SW-620 it was 15.6 µM (inactive); with SN12C, 31.4 µM (inactive). Moreover, the GI50 was 20.5 µM (inactive) in the test with SF-295; 40 µM (inactive) in the test with MDA-MB-231; 11.5 µM (inactive) in the test with CCRF-CEM; 6.18 µM (inactive) in the test with MDA-MB-435; 0.74 µM (active) with A498; 36.8 µM (inactive) in the test with HL-60. The GI50 in the test on K562 was 8.13 µM (inactive); in the test on PC-3, 15 µM (inactive); in the test on HCT-116, 13.2 µM (inactive); in the test with MCF7, 18.2 µM (inactive); in the test on MOLT-4, 9.73 µM (inactive); with OVCAR-3, 19.5 µM (inactive).
